Laboratory results taken from ChEMBL document CHEMBL1158178, “Study on the binding interaction between carnitine optical isomer and bovine serum albumin” (Eur J Med Chem, 2008).

Experiments:
Albumin [1] = molecular target: T1, Albumin (Bos taurus, UniProt P02769); assay: Binding affinity to bovine serum albumin by fluorescence spectroscopy; format: ADME; conditions: cattle, isolated protein
Albumin [2] = molecular target: T1, Albumin; assay: Binding affinity to bovine serum albumin by fluorescence spectroscopy in presence of Fe3+; format: ADME; conditions: cattle, isolated protein

T1 sequence (P02769 whole entry): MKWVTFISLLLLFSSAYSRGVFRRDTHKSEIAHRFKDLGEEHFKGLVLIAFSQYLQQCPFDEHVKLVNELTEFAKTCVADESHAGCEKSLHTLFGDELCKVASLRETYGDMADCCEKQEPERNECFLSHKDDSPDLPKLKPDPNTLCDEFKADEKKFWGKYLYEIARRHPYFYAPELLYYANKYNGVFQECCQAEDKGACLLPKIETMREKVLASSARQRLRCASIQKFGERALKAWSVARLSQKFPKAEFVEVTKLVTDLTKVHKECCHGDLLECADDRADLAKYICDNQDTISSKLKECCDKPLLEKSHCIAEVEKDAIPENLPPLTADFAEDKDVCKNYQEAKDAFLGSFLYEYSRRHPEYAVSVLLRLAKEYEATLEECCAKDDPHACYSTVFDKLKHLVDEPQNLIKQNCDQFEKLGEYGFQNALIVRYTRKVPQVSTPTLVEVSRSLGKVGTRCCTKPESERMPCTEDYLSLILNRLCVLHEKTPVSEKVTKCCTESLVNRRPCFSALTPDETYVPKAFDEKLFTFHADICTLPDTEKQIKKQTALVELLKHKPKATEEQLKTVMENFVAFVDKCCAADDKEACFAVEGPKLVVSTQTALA

SMILES	K (Albumin [1]) [×10⁴ L/mol]	K (Albumin [2]) [×10⁴ L/mol]
C[N+](C)(C)C[C@@H](O)CC(=O)[O-] [D-CARNITINE]	2.15	3.18
C[N+](C)(C)C[C@H](O)CC(=O)[O-] [LEVOCARNITINE]	2.27	2.97
